Source: PMC10747822 (Pharmaceutics, 2023)
Where two headings read alike, the source gives them in different places. Where a SMILES comes first, the peptide text is derived from it. [ ]: non-standard residue; d: D form. The star is where a group is joined. NH(4-amidinobenzyl) = N=C(N)c1ccc(CN*)cc1

Experiments:
[1] = Bench-top stability in fresh mouse whole blood; type: in vitro ADME; details: minimally diluted, 1 µg/mL (1000 ng/mL), room temperature, sampled at 0, 1 and 2 h, duplicates of 20 µL, UPLC-MS/MS peak area ratio analyte/IS, read-out: calculated half-life in whole blood (converted)
Experimental: To investigate peptide stability, minimally diluted plasma or blood samples were generated through the addition of 10 µL of a spiking solution (50,000 ng/mL) to 490 µL of the pertinent biological matrix, resulting in a sample concentration of 1000 ng/mL. Samples (withdrawal of duplicates of 20 µL) were measured immediately after preparation and again after 1 and 2 h. Stability was evaluated via the comparison of peak area ratios of analyte and IS.
To determine which biological matrix is best suited for pharmacokinetic experiments in mice, we investigated the bench-top stability of Ac-[D-Leu]LLLRVK-amba in plasma and fresh whole blood at room temperature over a 2 h period (Figure 3). In plasma, anti-coagulated with Li-heparin, Ac-[D-Leu]LLLRVK-amba was very rapidly degraded.

[2] = Metabolite identification / degradation in mouse plasma by HRMS; type: in vitro ADME; details: minimally diluted mouse plasma
Experimental: Metabolite identification experiments were performed in minimally diluted mouse plasma at a Ac-[D-Leu]LLLRVK-amba concentration of 20 µg/mL. Minimally diluted plasma samples were incubated at room temperature and analyzed after 0, 0.5, 4, and 16 h. Samples were depleted from proteins via precipitation with a 2-fold excess of ACN + 0.1% FA and diluted with one equivalent of water + 0.1% FA for direct infusion onto the mass spectrometer.
High-resolution mass spectrometric (HRMS) determinations for the investigation of Ac-[D-Leu]LLLRVK-amba metabolism/degradation in plasma were performed on a Xevo G2-XS QTof (Waters, Milford, MA, USA) equipped with a heated Z-spray ESI source. Measurements were performed via direct infusion using the integrated infusion pump with positive ion sensitivity mode.

[3] = Blood pharmacokinetics in mice after intravenous and intraperitoneal injection; type: in vivo, C57Bl/6 female mice; details: for half-life: C57Bl/6, mouse, whole blood sampled at 20, 40, 60, 120 min, non-compartmental
Experimental: Animal studies were approved by the regulatory authorities (Regierungspräsidium Karlsruhe of the state of Baden-Württemberg/Germany, 35-9185.81/G-145/21) and fully complied with European and national regulations for the care and use of laboratory animals (2010/63/EU). Eight- to ten-week-old C57Bl/6 female mice (Janvier) were used for the study.
The animals were administered 4 mg/kg Ac-[D-Leu]LLLRVK-amba in 0.100 mL 0.9% sodium chloride (NaCl) solution per mouse. Four animals received the peptide as intraperitoneal injection, and three animals as intravenous bolus injection into the tail vein. Blood samples were taken 20, 40, 60, and 120 min after administration by collecting a drop of blood from puncture of the facial vein into EDTA tubes (KABE Labortechnik, Nümbrecht, Germany). Whole-blood samples were immediately snap-frozen in liquid nitrogen and stored at −80 °C until analysis.
Blood samples for calibration and QC purposes were generated through the addition of 25 µL of the pertinent spike solution to 20 µL of blank blood and the subsequent addition of 25 µL of IS solution. Calibration samples were produced at 10, 30, 100, 300, 1000, 3000, and 10,000 ng/mL, and QC samples were produced at concentrations of 10, 30, 3750, and 7500 ng/mL. For study sample processing, 20 µL of each sample was added to 25 µL of IS solution, and 25 µL of ACN/H2O 1/1 + 0.1% FA was added for volume compensation to ensure that sample preparation matches that of study blood samples. For stability reasons, each sample was immediately depleted from proteins by adding 150 µL ACN including 0.1% FA. Samples were processed individually and kept frozen until processing. Subsequently, samples were centrifuged at 13,200× g for 5 min. From the extracts, 10 µL was transferred to 400 µL of ACN/H2O 1/19 + 0.1% FA in wells of a 96-well collection plate (Waters, Milford, MA, USA).
Calibration curves were determined with 1/x^2 weighted linear regression using peak area ratios of the analyte to IS. This calculation was performed using the software TargetLynx V4.2 (Waters, Milford, MA, USA). Blood pharmacokinetics were determined with the software Kinetica (v 5.0; Thermo Fisher Scientific, Waltham, MA, USA). Pharmacokinetic analyses were performed using standard non-compartmental methods. The elimination rate (λ) was calculated by linear regression of ln-transformed concentrations from the terminal concentration decline, and the half-life was calculated as ln 2 divided by λ. Standard calculations were performed using Microsoft Office Excel 2010 (Mountain View, CA, USA).

[4] = Stock solution stability; type: physicochemical; details: 2 weeks; solutions in ACN/H2O (1/1, v/v) + 0.1% FA in glass, kept at 4 °C
Experimental: Calibration and quality control (QC) spike solutions were prepared in ACN/H2O (1/1, v/v) + 0.1% FA in glass vials. These were produced from stock solution generated from accurately dissolved independent weighings into 2 mL volumetric flasks. Calibration solutions were prepared at concentrations of 8, 24, 80, 240, 800, […], and 8000 ng/mL. QC solutions were prepared at concentrations of 8, 24, 3000, and 6000 ng/mL. The IS spike solution was prepared accordingly at a concentration of 400 ng/mL. Solutions were kept at 4 °C.
Extraction via protein precipitation combined with UPLC-MS/MS quantification for Ac-[D-Leu]LLLRVK-amba complied with the FDA and EMA recommendations for accuracy, precision, linearity, matrix effects, and recovery. Within the calibrated range (10–10,000 ng/mL), correlation coefficients (r^2) of >0.99 were obtained using linear regression and 1/x^2 weighting (Table S3). Table 1 gives an overview of the intraday and interday accuracies and precision values during validation, which were well within the required limits. The observed carry-over after the highest calibration sample was 0.015% and within the required limits of less than 20% of the peak area of the LLOQ. Stock solution stability was established for 2 weeks, which was sufficient to cover sample analyses with an accuracy of 93.7% of the peak areas of the stored solutions compared to initial values.

[5] = mice; cited from earlier work
Experimental: The pharmacokinetics of Ac-[D-Leu]LLLRVK-amba was already determined after intravenous bolus injection. With a half-life of only 9 min, this route of administration only produced a short period of potentially effective concentrations. […] Therefore, we aimed at flattening the pharmacokinetic profile with alternate routes of administr ...

CC(=O)N[C@H](CC(C)C)C(=O)N[C@@H](CC(C)C)C(=O)N[C@@H](CC(C)C)C(=O)N[C@@H](CC(C)C)C(=O)N[C@@H](CCCNC(=N)N)C(=O)N[C@H](C(=O)N[C@@H](CCCCN)C(=O)NCc1ccc(C(=N)N)cc1)C(C)C [Ac-[D-Leu]LLLRVK-amba] (Ac-[dL]LLLRVK-{NH(4-amidinobenzyl)})
half-life at 1000 ng/mL [1]: 83.4 min
metabolites / degradation products in mouse plasma ([2]; 20 µg/mL, room temperature over 16 h, HRMS, neither peptide bond hydrolysis nor oxidation products): no traces of metabolites were observed
stability in mouse plasma at 20 µg/mL ([2]; room temperature, 0, 0.5, 4 and 16 h, HRMS direct infusion (m/z 50-1200)): several hours
level at 2 h ([3]; female, C57Bl/6, ip, mouse #1, 2 h after intraperitoneal administration of 4 mg/kg, whole blood, UPLC-MS/MS, single sample, read-out: calculated blood concentration): 15.8 ng/mL
half-life ([3]; female, ip, mice, 4 mg/kg intraperitoneal, n = 4, UPLC-MS/MS, read-out: half-life after intraperitoneal administration): 15.9 ± 1 min
half-life ([3]; female, mice, 4 mg/kg intravenous bolus into tail vein, n = 3, UPLC-MS/MS, read-out: half-life after intravenous injection): 21 ± 1.6 min
intraperitoneal absorption ([3]; mice, 4 mg/kg intraperitoneal vs intravenous, judged by partial profiles, bioavailability not calculable): very efficient
stock solution stability, accuracy of peak areas of stored solutions compared to initial values [4]: 93.7%
half-life after intravenous bolus injection (previous study) [5]: 9 min
